From paper PMC5371393 (Journal of Medicinal Chemistry, 2016)

Key:
[1] = target: nucleotide-binding domain (NBD) of human HSC70 (HSC70-NBD residues 1–381) (Homo sapiens, UniProt P11142); assay: SPR affinity against immobilised HSC70-NBD; conditions: for fold increase in affinity compared to adenosine 1: comparator adenosine 1; for binding / affinity in words: SPR, HSC70-NBD, concentrations up to 1 mM; for fold improvement in affinity compared to 8-N-methylaminoadenosine 4: comparator 4 (Table 1, entry 2)
Sequence of nucleotide-binding domain (NBD) of human HSC70 (HSC70-NBD residues 1–381) (P11142 1-381): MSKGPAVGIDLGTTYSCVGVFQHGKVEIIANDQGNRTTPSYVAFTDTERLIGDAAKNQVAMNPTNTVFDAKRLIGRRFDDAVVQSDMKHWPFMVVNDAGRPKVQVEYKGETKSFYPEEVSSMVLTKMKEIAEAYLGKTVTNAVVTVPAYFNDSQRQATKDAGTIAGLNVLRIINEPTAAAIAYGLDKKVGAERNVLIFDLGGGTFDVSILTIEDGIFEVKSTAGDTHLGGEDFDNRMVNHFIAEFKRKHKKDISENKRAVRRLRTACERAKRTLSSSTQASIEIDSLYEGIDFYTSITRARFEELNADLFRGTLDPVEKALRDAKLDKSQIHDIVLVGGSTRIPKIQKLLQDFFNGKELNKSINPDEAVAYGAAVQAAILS

HSP70 = conditions: previously described affinity of ADP for HSP70; cited from earlier work

## Nc1ncnc2c1nc(N)n2[C@@H]1O[C@H](CO)[C@@H](O)[C@H]1O [Compound 3, 8-aminoadenosine, reference compound]
[1]; SPR KD
  fold increase in affinity compared to adenosine 1: 16 fold

## CNc1nc2c(N)ncnc2n1[C@@H]1O[C@H](CO)[C@@H](O)[C@H]1O [Compound 4, (2R,3R,4S,5R)-2-(6-Amino-8-(methylamino)-9H-purin-9-yl)-5-(hydroxymethyl)tetrahydrofuran-3,4-diol]
[1]; SPR KD, comparator 3
  fold drop in affinity compared to 8-aminoadenosine 3: 2.5 fold

## COc1nc2c(N)ncnc2n1[C@@H]1O[C@H](CO)[C@@H](O)[C@H]1O [Compound 6, (2R,3R,4S,5R)-2-(6-Amino-8-methoxy-9H-purin-9-yl)-5-(hydroxymethyl)tetrahydrofuran-3,4-diol]
[1]
  binding / affinity in words: complete loss of activity

## CNc1nc2c(N)ncnc2n1[C@@H]1O[C@H](C)[C@@H](O)[C@H]1O [Compound 7, (2R,3R,4S,5R)-2-(6-Amino-8-(methylamino)-9H-purin-9-yl)-5-methyltetrahydrofuran-3,4-diol]
[1]; SPR KD, comparator 4
  fold drop in affinity compared with 8-N-methylaminoadenosine 4: 1.6 fold

## Nc1ncnc2c1ccn2[C@@H]1O[C@H](CO)[C@@H](O)[C@H]1O [Compound 8, Tubercidin, reference compound]
[1]; SPR KD
  fold increase in affinity compared to adenosine 1: 4 fold

## N#Cc1cn([C@@H]2O[C@H](CO)[C@@H](O)[C@H]2O)c2ncnc(N)c12 [Compound 9, Toyocamycin, reference compound]
[1]
  binding / affinity in words: comparable affinity to adenosine 1

## NC(=O)c1cn([C@@H]2O[C@H](CO)[C@@H](O)[C@H]2O)c2ncnc(N)c12 [Compound 10, Sangivamycin, reference compound]
[1]; SPR KD
  fold increase in affinity compared to adenosine 1: 35 fold
[1]; SPR off-rate analysis
  half-life: too short to be observed

## CNc1c(C#N)c2c(N)ncnc2n1[C@@H]1O[C@H](CO)[C@@H](O)[C@H]1O [Compound 12, 4-Amino-7-((2R,3R,4S,5R)-3,4-dihydroxy-5-(hydroxymethyl)tetrahydrofuran-2-yl)-6-(methylamino)-7H-pyrrolo[2,3-d]pyrimidine-5-carbonitrile]
[1]; SPR KD
  fold improvement in affinity compared to 8-N-methylaminoadenosine 4: 5 fold
[1]; SPR KD, comparator 9
  fold improvement in activity compared to toyocamycin 9: 27 fold

## CNc1c(C(N)=O)c2c(N)ncnc2n1[C@@H]1O[C@H](CO)[C@@H](O)[C@H]1O [Compound 13, 4-Amino-7-((2R,3R,4S,5R)-3,4-dihydroxy-5-(hydroxymethyl)tetrahydrofuran-2-yl)-6-(methylamino)-7H-pyrrolo[2,3-d]pyrimidine-5-carboxamide]
[1]; SPR KD, comparator 10
  fold drop in affinity compared to sangivamycin 10: 7 fold

## N#Cc1c(NCc2ccccc2)n([C@@H]2O[C@H](CO)[C@@H](O)[C@H]2O)c2ncnc(N)c12 [Compound 14, 4-Amino-6-(benzylamino)-7-((2R,3R,4S,5R)-3,4-dihydroxy-5-(hydroxymethyl)tetrahydrofuran-2-yl)-7H-pyrrolo[2,3-d]pyrimidine-5-carbonitrile]
[1]
  binding / affinity in words: little change in affinity

## Nc1ncnc2c1nc(NCc1ccccc1)n2[C@@H]1O[C@H](CO)[C@@H](O)[C@H]1O [Compound 15, (2R,3R,4S,5R)-2-(6-Amino-8-(benzylamino)-9H-purin-9-yl)-5-(hydroxymethyl)tetrahydrofuran-3,4-diol]
[1]; SPR KD
  fold improvement in affinity compared to 8-N-methylaminoadenosine 4: 12 fold

## Nc1ncnc2c1ncn2[C@@H]1O[C@H](COP(=O)(O)OP(=O)(O)O)[C@@H](O)[C@H]1O [Compound 16, adenosine diphosphate]
HSP70
  Kd: 500 nM

## Nc1ncnc2c1nc(NCc1ccc(Cl)cc1)n2[C@@H]1O[C@H](CO)[C@@H](O)[C@H]1O [Compound 18, (2R,3R,4S,5R)-2-(6-Amino-8-((4-chlorobenzyl)amino)-9H-purin-9-yl)-5-(hydroxymethyl)tetrahydrofuran-3,4-diol]
[1]; SPR KD
  fold improvement in affinity compared to 8-N-methylaminoadenosine 4: 60 fold
[1]; SPR KD, comparator 15
  fold improvement in affinity compared to compound 15: 5 fold
